Legend:
Phoenix Eco cells [1] = test system: Phoenix Eco cells
[2] = estimated; 5 µM oligomer, 37°C, DMEM/10% FBS; denaturing gel, densitometry
Phoenix Eco cells [3] = assay: Live-cell confocal microscopy, intracellular localization; assay type: cell-based
Phoenix Eco cells [4] = assay: Cellular uptake of fluorescein-labeled oligomers; assay type: cell-based

In the case of `CCN(CC)CCCC(C)Nc1ccnc2cc(Cl)ccc12` (centres unmarked) [chloroquine], the cell viability (Phoenix Eco cells [1]) was 80–85%.

For “pHypNA TCACTCAACACTCAC-Flu: fluorescein-labeled trans-L pHypNA oligomer, sequence TCACTCAACACTCAC-Flu (pHypNA backbone; fluorescein)”, the half-life [2] was ~72 h, the “intracellular distribution (in words)” value (Phoenix Eco cells [3]) was “evenly distributed in the cytoplasm with preferential staining of the nucleus” and the “time of maximum uptake” value (Phoenix Eco cells [4]; in the presence of LFA) was 20 to 24 h. The “fluorescence in treated cells (in words)” value (Phoenix Eco cells [4]; in the presence of Lipofectamine-2000 (LFA), oligomer or its duplex with CT-ODN, after 4 h already) was “high level of fluorescence”.
